# Assay results published in patent US9120776B2, “Condensed heterocyclic compound” (Takeda Pharmaceutical Company Limited, priority 2011, dated 2015).
# Where two headings read alike, the source gives them in different places.
# Key:
# RORγt [1] = biological target: T1, RORγt (Homo sapiens, UniProt P51449); assay: Jurkat Reporter Test (human IL-17 ROR response element luciferase, RORγt vector); format: cell-based; conditions: read-out: inhibitory rate (%)
# T1 sequence (P51449 1-497 isoform P51449-2): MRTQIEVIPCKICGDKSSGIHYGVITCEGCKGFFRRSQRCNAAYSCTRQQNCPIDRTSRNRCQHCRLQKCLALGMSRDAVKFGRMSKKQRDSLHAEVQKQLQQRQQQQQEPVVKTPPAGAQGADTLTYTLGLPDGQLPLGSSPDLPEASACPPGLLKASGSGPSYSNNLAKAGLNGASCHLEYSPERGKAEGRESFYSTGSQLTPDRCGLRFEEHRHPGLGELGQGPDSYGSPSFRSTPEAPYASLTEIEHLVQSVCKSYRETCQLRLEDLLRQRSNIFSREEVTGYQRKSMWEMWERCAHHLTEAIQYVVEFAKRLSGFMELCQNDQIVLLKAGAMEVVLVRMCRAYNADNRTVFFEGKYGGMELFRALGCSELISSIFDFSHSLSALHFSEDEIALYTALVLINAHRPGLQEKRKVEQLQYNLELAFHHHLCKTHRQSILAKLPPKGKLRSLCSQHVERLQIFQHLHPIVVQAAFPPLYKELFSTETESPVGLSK
# Description: The Jurkat cells used for the reporter test were cultured in a culture medium (RPMI (Invitrogen), 10% FCS (AusGeneX), 100 U/mL penicillin, 100 μg/mL streptomycin). On the day of the test, 4×10^7 cells were recovered by a centrifugal operation (1000 rpm, 5 min.) and suspended in PBS (phosphate buffered saline) (Invitrogen). Thereafter, the cells were recovered again by a centrifugal operation, and suspended in 2 mL of R buffer (NEON transfection kit, Invitrogen). […] Gene transfer was performed by Electroporation apparatus (NEON, Invitrogen) under the conditions of pulse voltage 1350 V, interval 10 milliseconds, number of times 3. The cells after gene transfer were suspended in 40 mL of a reaction medium (RPMI, 10% Lipid reduced FCS (HyClone), 10 mM HEPES (pH 7.5), 100 U/mL penicillin, 100 μg/mL streptomycin, 5 μM lovastatin), and plated in a 96 well plate by 90 μL each. A test compound diluted with the reaction medium was added by 10 μL each, and the cells were cultured overnight in an incubator. Bright-Glo (Promega) was added by 100 μL each, and the mixture was stirred at room temperature for 10 min, and the luminescence level was measured by Envision (PerkinElmer).
# Th17 cells = assay: Mouse Th17 Cell Differentiation Test (IL-17A in culture supernatant, ELISA); format: cell-based; conditions: inhibitory rate at 10 μM of test compound, mouse CD4 positive naive T cells, 4 days, IL-17A by ELISA; for inhibition at 10 µM: 96 h
# Description: CD4 positive naive T cells were collected from the spleen cells of BALB/c mice (female, 8-11w, Charles River Laboratories Japan, Inc.) using CD4+CD62L+ T Cell Isolation kit II (Miltenyi Biotec). The CD4 positive naive T cells in a 96 well plate (3×10^5 cells/well) were stimulated (37° C. for culture) with anti-mouse CD3ε antibody (Bio X cell) (10 μg/mL, solid phase) and anti-CD28 antibody (Bio X cell) (5 μg/mL) for 4 days in the presence of anti-IFN-γ antibody (BioLegend), anti-IL-4 antibody (BioLegend), anti-IL-2 antibody (BioLegend), IL-6, TGF-β and IL-23 to differentiate into Th17 cells. The compound was dissolved in DMSO and then added thereto. The cells were cultured under these conditions for 4 days, and differentiation of the Th17 cells was evaluated by using the concentration of IL-17A, which was measured by ELISA, in the culture supernatant obtained by centrifugation.
# RORγt [2] = biological target: T1, RORγt; assay: RORγt Binding Test (TR-FRET, fluorescent-labeled cholesterol); design: histidine tag (implied by the Histidine Detection Kit); conditions: binding inhibitory rate of fluorescent-labeled cholesterol to RORγt at test compound 1 μM
# Description: The binding activity of the test compound to RORγt was measured by a time resolved fluorescence resonance energy transfer method (TR-FRET) utilizing histidine-tagged RORγt, fluorescent-labeled cholesterol (BODIPY-cholesterol, AVIVA) and terbium-labeled anti-histidine tag antibody (Invitrogen). First, a test compound diluted with an assay buffer (20 mM Tris-HCl (pH 7.5), 100 mM NaCl, 1 mM DTT, 0.1% BSA) was added to a 384 well plate by 3 μL each. Then, RORγt diluted with an assay buffer to 240 nM was added by 3 μL each, after which fluorescent-labeled cholesterol diluted with the assay buffer to 12 μM was added by 3 μL each, and the mixture was stood at room temperature for 20 min. Thereafter, a terbium-labeled anti-histidine tag antibody diluted with the assay buffer to 8 nM was added by 3 μL each. The mixture was stood at room temperature for 20 min, and fluorescence intensity (excitation wavelength 320 nm, fluorescence wavelength 520 nm, delay time 100 microseconds) was measured by Envision (PerkinElmer).
# RORγt [3] = biological target: T1, RORγt; assay: Cofactor Recruitment Test (Alpha Screen, biotinylated SRC-1 peptide); format: biochemical; design: histidine tag (implied by the Histidine Detection Kit); conditions: signal value inhibitory rate at test compound 1 μM
# Description: Cofactor recruitment test was performed by Alpha Screen (Histidine Detection Kit, PerkinElmer) method. First, a test compound diluted with an assay buffer (50 mM Tris-HCl (pH 7.5), 50 mM KCl, 1 mM DTT, 0.1% BSA) was added to a 384 well plate by 5 μL each. […] The mixture was stood in a dark place for 1 hr, and the signal value was measured by Envision (PerkinElmer).
# human PBMC = assay: IL17 Production Test in Human PBMC; format: cell-based; conditions: 72 h, inhibitory rate at 10 μM of test compound, anti-CD3/CD28 stimulation, 3 days, IL-17A by ELISA
# Description: Peripheral blood mononuclear cells (PBMC) collected from human peripheral blood by a density gradient centrifugation method were stimulated by Dynabeads (registered trade mark; anti-CD3/CD28 antibody) and cultured at 37° C. for 3 days. The compound was dissolved in DMSO and then added thereto. After culture for 3 days under such conditions, the concentration of IL-17A in the culture supernatant obtained by centrifugation was measured by ELISA to evaluate the effect of the compound on IL-17 production.
# [4] = luminescence level inhibitory rate at test compound 3 μM, Jurkat cells
inhibition at 3 µM (RORγt [1]; [4]) [%],inhibition at 1 µM (RORγt [2]) [%],inhibition at 1 µM (RORγt [3]) [%],SMILES,inhibition at 10 µM (Th17 cells) [%],"inhibition at 10 µM (Th17 cells; Mus musculus, CD4 positive) [%]",inhibitory rate (%) (Th17 cells; 10 µM),inhibition at 3 µM (RORγt [1]; Jurkat) [%],inhibition at 10 µM (human PBMC) [%]
100,98.9,101,"CCn1c2ccccc2c2cc(NC(=O)CSCC(=O)Nc3ccc(C#N)cc3)ccc21 [Example 24, 2-({2-[(4-cyanophenyl)amino]-2-oxoethyl}sulfanyl)-N-(9-ethyl-9H-carbazol-3-yl)acetamide]",96,–,–,–,–
82.7,94.6,103,"CCn1c2ccccc2c2cc(NC(=O)C[S+]([O-])CC(=O)Nc3ccc(C#N)cc3)ccc21 (stereo not shown) [Example 34, 2-((2-((4-cyanophenyl)amino)-2-oxoethyl)sulfinyl)-N-(9-ethyl-9H-carbazol-3-yl)acetamide]",96.3,–,–,–,–
99.4,91.9,102,"CCn1c2ccccc2c2cc(NC(=O)CC(C)CCOc3ccc(C#N)c(Cl)c3)ccc21 (stereo not shown) [Example 38, 5-(3-chloro-4-cyanophenoxy)-N-(9-ethyl-9H-carbazol-3-yl)-3-methylpentanamide]",–,–,–,–,–
96.4,93.4,100,"CCn1c2ccccc2c2cc(NC(=O)CC(C)CC(=O)Nc3ccc(C#N)c(OC)c3)ccc21 (stereo not shown) [Example 41, N-(4-cyano-3-methoxyphenyl)-N′-(9-ethyl-9H-carbazol-3-yl)-3-methylpentanediamide]",–,–,–,–,–
77.8,62.9,98.7,"CCn1c2ccccc2c2cc(NC(=O)CC(C)CCOc3ccc(C#N)c(C)c3)ccc21 (stereo not shown) [Example 44, 5-(4-cyano-3-methylphenoxy)-N-(9-ethyl-9H-carbazol-3-yl)-3-methylpentanamide]",–,–,–,–,–
109,93.9,104,"CCn1c2ccccc2c2cc(NC(=O)CC(C)CC(=O)Nc3ccc(C#N)nc3)ccc21 (stereo not shown) [Example 49, N-(6-cyanopyridin-3-yl)-N′-(9-ethyl-9H-carbazol-3-yl)-3-methylpentanediamide]",–,–,–,–,–
110,88.8,103,"CCn1c2ccccc2c2cc(NC(=O)CC(C)CC(=O)Nc3ccc(C#N)cn3)ccc21 (stereo not shown) [Example 50, N-(5-cyanopyridin-2-yl)-N′-(9-ethyl-9H-carbazol-3-yl)-3-methylpentanediamide]",–,–,–,–,–

# The remaining lines, values behind:
SMILES,inhibition at 3 µM (RORγt [1]; [4]) [%],inhibition at 1 µM (RORγt [2]) [%],inhibition at 1 µM (RORγt [3]) [%],inhibition at 10 µM (Th17 cells) [%],"inhibition at 10 µM (Th17 cells; Mus musculus, CD4 positive) [%]",inhibitory rate (%) (Th17 cells; 10 µM),inhibition at 3 µM (RORγt [1]; Jurkat) [%],inhibition at 10 µM (human PBMC) [%]
"CCn1c2ccccc2c2cc(NC(=O)CC(C)CC(=O)Nc3ccc(C#N)c(Cl)c3)ccc21 (stereo not shown) [Example 25, N-(3-chloro-4-cyanophenyl)-N′-(9-ethyl-9H-carbazol-3-yl)-3-methylpentanediamide]",–,–,–,–,96.1,–,–,–
"CCn1c2ccccc2c2cc(NC(=O)CC(C)CC(=O)Nc3ccc(C#N)c(Cl)c3)ccc21 (stereo not shown) [Example 26, N-(3-chloro-4-cyanophenyl)-N′-(9-ethyl-9H-carbazol-3-yl)-3-methylpentanediamide]",–,–,–,–,–,96.1,–,–
"CCn1c2ccccc2c2cc(NC(=O)CC(CC(=O)Nc3ccc(C#N)c(Cl)c3)c3ccccc3)ccc21 (stereo not shown) [Example 39, N-(3-chloro-4-cyanophenyl)-N′-(9-ethyl-9H-carbazol-3-yl)-3-phenylpentanediamide]",–,91.4,102,–,–,–,93.2,–
"CCn1c2ccccc2c2cc(NC(=O)C3CCC3C(=O)Nc3ccc(C#N)c(Cl)c3)ccc21 (stereo not shown) [Example 40, N-(3-chloro-4-cyanophenyl)-N′-(9-ethyl-9H-carbazol-3-yl)cyclobutane-1,2-dicarboxamide]",–,96.3,102,–,–,–,99.3,–
"CCn1c2ccccc2c2cc(NC(=O)C(C)CCC(=O)Nc3ccc(C#N)c(Cl)c3)ccc21 (stereo not shown) [Example 42, N^5-(3-chloro-4-cyanophenyl)-N^1-(9-ethyl-9H-carbazol-3-yl)-2-methylpentanediamide]",–,101,101,–,–,–,104,–
"CCn1c2ccccc2c2cc(NC(=O)CCC(C)C(=O)Nc3ccc(C#N)c(Cl)c3)ccc21 (stereo not shown) [Example 43, N^1-(3-chloro-4-cyanophenyl)-N^5-(9-ethyl-9H-carbazol-3-yl)-2-methylpentanediamide]",–,100,102,–,–,–,104,–
"CCn1c2ccccc2c2cc(C(=O)NCC(C)CC(=O)Nc3ccc(C#N)c(Cl)c3)ccc21 (stereo not shown) [Example 48, N-{4-[(3-chloro-4-cyanophenyl)amino]-2-methyl-4-oxobutyl}-9-ethyl-9H-carbazole-3-carboxamide]",–,104,106,–,96.9,–,115,97.6
"CCn1c2ccccc2c2cc(NC(=O)CC(C)CCOc3ccc(C#N)c(C#N)c3)ccc21 (stereo not shown) [Example 55, 5-(3,4-dicyanophenoxy)-N-(9-ethyl-9H-carbazol-3-yl)-3-methylpentanamide]",102,82.2,104,–,–,–,–,–
"CCn1c2ccccc2c2cc(NC(=O)CC(C)CC(=O)Nc3ccc(C#N)cc3)ccc21 (stereo not shown) [Step 1 of Example 15, N^1-(4-cyanophenyl)-N^5-(9-ethyl-9H-carbazol-3-yl)-3-methylpentanediamide]",–,–,–,93.2,–,–,–,–
